Test results as given in patent publication US20080214606A1, “Methods for the Identification and Use of Compounds Suitable for the Treatment of Drug Resistant Cancer Cells” (The Government of the United States of America as …, priority 2004, published 2008).

Each molecule was assayed against ABCB1 (Homo sapiens, UniProt P08183) (assay: Correlation of ABCB1 expression with drug sensitivity across the NCI-60). Settings: not given.
Description: Expression levels are measured by real-time quantitative RT-PCR using the LightCycler RNA Amplification SYBR Green kit and a LightCycler machine (Roche Biochemicals, Indianapolis, Ind.). Specific oligonucleotide probes are designed for each of the ABC transporters using DNAStar Primer Select (DNASTAR Inc.), and they may be synthesized at Lofstrand Laboratories (Gaithersburg, Md.). When possible, the amplicons are designed to encompass exon-intron boundaries to avoid amplification of genomic DNA. Since the Syber Green assay detects accumulation of double stranded DNA, primers are selected (from a battery consisting of about 200 primers) that amplified a single product of the correct size.
RT-PCR is carried out on 150 ng total RNA, in the presence of 250 nM specific primers. Following reverse transcription (20 min at 50° C.), the PCR reaction consists of 45 cycles of denaturation (15 sec at 95° C.), annealing (30 sec at 58° C.), and elongation (30 sec at 72° C.). No-template (water) reaction mixtures are prepared as negative controls.
During PCR amplification, fluorescence emission is measured and recorded in real time by the LightCycler. Crossing point values are calculated, using the LightCycler software package, by the Fit Points analysis method, with baseline fluorescence set at 1. The SyberGreen assay measures accumulation of double-stranded products, and the appearance of primer dimers limits quantitation at high cycle numbers. […] The raw results are expressed as number of cycles to reach the crossing point. If the desired product is not detected, the corresponding value is adjusted to crossing points indicating no expression. To assess the contribution of experimental artifacts, selected cell lines are assessed in replicate.
Both sets are available at http://discover.nci.nih.gov. The two are combined to form a joint dataset that includes 1429 compounds.
To determine quantitatively how well the 47 genes cluster the cell lines by their tissues of origin, a statistical method is employed wherein the kappa statistic is used to indicate how well the observed clusters correspond to the nine tissue-of-origin classifications. […] To control the overall false type 1 error rate, both a step-down procedure (Westfall and Young, 1993, Resampling-Based Multiple Testing: Examples and Methods for p-value Adjustment (New York: Wiley)) and a step-up procedure (Reiner et al., 2003, Bioinformatics 19:368-375) were employed to adjust for multiple testing of all 47 genes simultaneously. In the Benjamini-Hochberg procedure the p-values are computed in the standard way by permutation, assuming that all distributions are exchangeable: the number of values in the permuted data with correlations over a threshold, divided by the number of compounds and by the number of permutations. In this analysis, the False Discovery Rate (q-value) at which each compound would be declared was calculated using the step-up procedure for positively correlated test statistics (again true because all correlations being compared are computed against the same ABC gene): in this procedure the first q-value for the largest correlation is the Bonferroni-corrected p-value for that gene; then further q-values are calculated as qj=max(pj*1429/j, qj-1). This procedure limits the expected proportion of false positives in the list 1, . . . , j to at most qj.

Sequence of ABCB1 (P08183 whole entry): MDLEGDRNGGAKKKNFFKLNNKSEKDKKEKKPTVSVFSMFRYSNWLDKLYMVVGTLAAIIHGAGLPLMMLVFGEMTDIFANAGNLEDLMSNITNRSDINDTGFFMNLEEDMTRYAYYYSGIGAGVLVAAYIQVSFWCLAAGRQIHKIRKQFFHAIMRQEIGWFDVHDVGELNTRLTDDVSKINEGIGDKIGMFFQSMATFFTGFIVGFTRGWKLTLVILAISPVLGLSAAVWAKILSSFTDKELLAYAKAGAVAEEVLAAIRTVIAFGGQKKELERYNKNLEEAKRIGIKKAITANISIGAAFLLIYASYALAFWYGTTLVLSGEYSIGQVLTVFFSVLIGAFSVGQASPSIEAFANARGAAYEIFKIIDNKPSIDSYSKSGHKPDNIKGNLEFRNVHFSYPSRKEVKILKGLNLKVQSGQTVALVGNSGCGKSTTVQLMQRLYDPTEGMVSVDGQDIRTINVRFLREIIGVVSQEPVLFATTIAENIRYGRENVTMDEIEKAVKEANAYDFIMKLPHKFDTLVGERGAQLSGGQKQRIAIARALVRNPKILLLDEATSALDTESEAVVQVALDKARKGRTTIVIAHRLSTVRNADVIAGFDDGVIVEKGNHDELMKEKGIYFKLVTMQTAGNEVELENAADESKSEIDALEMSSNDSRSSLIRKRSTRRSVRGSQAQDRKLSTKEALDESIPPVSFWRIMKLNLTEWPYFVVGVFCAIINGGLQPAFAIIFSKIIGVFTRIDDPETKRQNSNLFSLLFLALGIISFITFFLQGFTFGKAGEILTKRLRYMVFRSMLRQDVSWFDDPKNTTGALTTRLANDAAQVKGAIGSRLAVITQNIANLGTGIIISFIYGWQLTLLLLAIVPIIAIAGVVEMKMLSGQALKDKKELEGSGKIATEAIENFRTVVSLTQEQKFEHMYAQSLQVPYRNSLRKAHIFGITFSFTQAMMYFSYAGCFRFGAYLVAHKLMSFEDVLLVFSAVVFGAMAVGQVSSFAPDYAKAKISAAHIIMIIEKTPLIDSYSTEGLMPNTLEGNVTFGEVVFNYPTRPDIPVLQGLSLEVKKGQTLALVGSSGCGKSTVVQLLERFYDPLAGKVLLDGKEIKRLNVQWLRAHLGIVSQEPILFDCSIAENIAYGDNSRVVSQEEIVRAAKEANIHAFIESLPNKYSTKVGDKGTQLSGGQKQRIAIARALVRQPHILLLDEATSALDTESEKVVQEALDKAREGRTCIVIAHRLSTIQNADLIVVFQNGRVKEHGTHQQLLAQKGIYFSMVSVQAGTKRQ

SMILES	Correlation	Correlation of antiproliferative activity with ABCB1 expression	Relationship between drug sensitivity and ABCB1 expression (in words)
COc1c(OC(C)=O)c(OC(C)=O)cc2c1-c1ccc(SC)c(=O)cc1C(NC(C)=O)CC2 (stereo not drawn) [NSC 374980]	−0.5590		
Nc1nc(N)c2nc(CNc3ccc(C(=O)NC(CCC(=O)O)C(=O)O)cc3F)cnc2n1.O=C(O)C(F)(F)F (stereo not drawn) [NSC 607301]		0.3523	
CCOC(=O)NC1CC2CCC1(OC)C=C2C (stereo not drawn) [NSC 617278]		0.424	
COc1ccc2nc3c(C(=O)NCCN(C)C)cccc3cc2c1.Cl [NSC 617959]		0.3586	
Cc1cc(C(=O)NCCN(C)C)c2nc3ccccc3cc2c1.Cl [NSC 617961]		0.423	
Cc1ccc2nc3c(C(=O)NCCN(C)C)cccc3cc2c1.Cl [NSC 617963]		0.5317	
CN(C)CCNC(=O)c1cc(Cl)cc2cc3ccccc3nc12.Cl [NSC 617966]		0.3715	
CN(C)c1ccc(/C=C2\C[N+](C)(C)C/C(=C\c3ccc(N(C)C)cc3)C2=O)cc1.[I-] [NSC 618757]	−0.6081		
CSc1nc2nn(Cc3ccccc3)cc2c(=O)[nH]1 [NSC 622927]		0.4001	
CNC(=O)C(C)C1CCC2(C)C=CC(=O)C(C)=C2C1O (stereo not drawn) [NSC 623069]		0.459	
O=C(N[C@@H](c1ccccc1)[C@@H](O)C(=O)OCc1ccc2c(c1)OCO2)c1ccccc1 [NSC 625349]		0.3935	
O=[Se](=O)c1ccccc1.O=[Se](=O)c1ccccc1.[Cu] [NSC 626670]		0.4177	
Cc1cc(C)c(C2=NO[C@@H]3[C@H]2C(=O)C=C2N(Cc4ccccc4)CCO[C@@]23O)c(C)c1 [NSC 627025]		0.3511	
CSc1sc(=S)sc1SC [NSC 627450]		0.4454	
O=C1CSc2sc(=S)sc2S1 [NSC 627451]		0.3894	
O=C1Sc2sc(=S)sc2SC1c1ccccc1 (stereo not drawn) [NSC 627452]		0.3534	
CCC(C)SC1SCC2C(=O)N(C)C3(CC3C)C(=O)OCC(NC(=O)c3nc4ccccc4cc3O)C(=O)NC(C)C(=O)N(C)C1C(=O)N(C)C1(CC1C)C(=O)OCC(NC(=O)c1nc3ccccc3cc1O)C(=O)NC(C)C(=O)N2C (stereo not drawn) [NSC 630678]	−0.7029		
O=C(CCc1nnc2s/c(=C\c3ccc4c(c3)OCO4)c(=O)n12)Nc1cc(Cl)ccc1Cl [NSC 635543]		0.3514	
C[N+]1(C)C/C(=C\C=C\c2ccccc2)C(=O)/C(=C/C=C/c2ccccc2)C1.[I-] [NSC 636679]	−0.5530		

SMILES	Correlation	Correlation of antiproliferative activity with ABCB1 expression	Relationship between drug sensitivity and ABCB1 expression (in words)
c1cc(-c2cn3ccsc3n2)ccn1 [NSC 641288]		0.3643	
CC(C)OC(=S)Nc1ccc(Cl)c(/C=N/OC(C)(C)C)c1 [NSC 645542]		0.3924	
O=C1c2c(nc3ccccc3c2-c2ccccc2)CN1Nc1ccccn1 [NSC 648072]		0.3579	
CC[C@]12C=CCN3CCC4(c5cc([C@@]6(C(=O)OC)CC7CN(CCc8c6[nH]c6ccccc86)C[C@@H]6CCC[C@H]76)c(OC)cc5N(C)C4[C@](O)(C(=O)OC)C1OC(C)=O)C32.COS(=O)(=O)O (stereo partly drawn) [NSC 651727]	−0.3910		
[Se]=P(c1ccccc1)(c1ccccc1)c1ccc(C(c2ccccc2)=P(c2ccccc2)(c2ccccc2)c2ccccc2)cc1 [NSC 676864]	−0.6546		
[N-]=[N+]=CC(=O)OC1Cc2ccccc2C1 [NSC 679285]		0.3504	
COc1c(C)c(C/C=C(\C)CCCCO[Si](c2ccccc2)(c2ccccc2)C(C)(C)C)c(OC)c(OC)c1OC [NSC 687141]		0.3774	
CC(/C=N/NC(=S)N1CCCCC1)=N/NC(=S)N1CCCCC1 [NSC 693326]		0.3892	
COC(=O)CN(CC(O)C(NC(C)=O)C(O)C=O)C(=O)OCc1ccccc1 (stereo not drawn) [NSC 693931]		0.3708	
CC(C)=CCC[C@@H](C)C1=C(N)C(=O)C(C)=C(O)C1=O [NSC 697124]		0.4636	
CC(C)=CCC[C@@H](C)C1=C(O)C(Nc2ccccc2Cl)=C(C)C(=O)C1=O [NSC 697132]		0.3558	
CCC1=NC(N/N=C/c2ccccc2O)=N/C1=C\c1ccccc1O [NSC 697678]		0.4314	
O=C(/C=C/c1ccccc1)CSc1nc2ccc(I)cc2c(=O)n1Cc1ccccc1 [NSC 715729]		0.3544	
COc1cccc2c1C(=O)c1c(O)c3c(c(O)c1C2=O)C[C@@](O)(C(=O)CO)C[C@@H]3O[C@H]1C[C@H](N)[C@H](O)[C@H](C)O1 [doxorubicin, reference compound]			striking inverse correlations
COC1=C2C[C@@H](C)C[C@H](OC)[C@H](O)[C@@H](C)/C=C(\C)[C@H](OC(N)=O)[C@@H](OC)/C=C\C=C(/C)C(=O)NC(=CC1=O)C2=O [geldamycin, reference compound]			striking inverse correlations
NC(=O)NO [hydroxyurea, reference compound]			non-correlated or positively correlated
CN(Cc1cnc2nc(N)nc(N)c2n1)c1ccc(C(=O)N[C@@H](CCC(=O)O)C(=O)O)cc1 [methotrexate, reference compound]			non-correlated or positively correlated
CC(=O)O[C@H]1C(=O)[C@@]2(C)[C@H]([C@H](OC(=O)c3ccccc3)[C@]3(O)C[C@H](OC(=O)[C@H](O)[C@@H](NC(=O)c4ccccc4)c4ccccc4)C(C)=C1C3(C)C)[C@]1(OC(C)=O)CO[C@@H]1C[C@@H]2O [paclitaxel, reference compound]			striking inverse correlations
CC[C@]1(O)C[C@@H]2CN(CCc3c([nH]c4ccccc34)[C@@](C(=O)OC)(c3cc4c(cc3OC)N(C)[C@H]3[C@@](O)(C(=O)OC)[C@H](OC(C)=O)[C@]5(CC)C=CCN6CC[C@]43[C@@H]65)C2)C1 [vinblastine, reference compound]			striking inverse correlations

Same assay, conditions: set of 118 compounds with putatively known mechanisms of action, FIG. 2

SMILES	Relationship between drug sensitivity and ABCB1 expression (in words)
C(=N\NC1=NCCN1)/c1c2ccccc2c(/C=N/NC2=NCCN2)c2ccccc12 [bisantrene, reference compound]	striking inverse correlations

The molecules below were run against T1, ABCD1 (Homo sapiens, UniProt P33897) (assay: Correlation of ABCD1 expression with drug sensitivity across the NCI-60). Settings: Pearson correlation of ABCD1 expression with sensitivity of the 60 cell lines; 1429 compounds; inverse, p < 0.0001.
T1 construct: profiled in 60 diverse cancer cell lines (the NCI-60) using real-time RT-PCR; endogenous in cells; host or cells: NCI-60 human cancer cell lines
Type: cell-based
Description: Expression levels are measured by real-time quantitative RT-PCR using the LightCycler RNA Amplification SYBR Green kit and a LightCycler machine (Roche Biochemicals, Indianapolis, Ind.). […] When possible, the amplicons are designed to encompass exon-intron boundaries to avoid amplification of genomic DNA. Since the Syber Green assay detects accumulation of double stranded DNA, primers are selected (from a battery consisting of about 200 primers) that amplified a single product of the correct size.
During PCR amplification, fluorescence emission is measured and recorded in real time by the LightCycler. Crossing point values are calculated, using the LightCycler software package, by the Fit Points analysis method, with baseline fluorescence set at 1. The SyberGreen assay measures accumulation of double-stranded products, and the appearance of primer dimers limits quantitation at high cycle numbers. The specificity of amplified products is verified by melting-curve analysis and agarose gel electrophoresis (not shown). The raw results are expressed as number of cycles to reach the crossing point. If the desired product is not detected, the corresponding value is adjusted to crossing points indicating no expression. To assess the contribution of experimental artifacts, selected cell lines are assessed in replicate.

T1 sequence (P33897 whole entry): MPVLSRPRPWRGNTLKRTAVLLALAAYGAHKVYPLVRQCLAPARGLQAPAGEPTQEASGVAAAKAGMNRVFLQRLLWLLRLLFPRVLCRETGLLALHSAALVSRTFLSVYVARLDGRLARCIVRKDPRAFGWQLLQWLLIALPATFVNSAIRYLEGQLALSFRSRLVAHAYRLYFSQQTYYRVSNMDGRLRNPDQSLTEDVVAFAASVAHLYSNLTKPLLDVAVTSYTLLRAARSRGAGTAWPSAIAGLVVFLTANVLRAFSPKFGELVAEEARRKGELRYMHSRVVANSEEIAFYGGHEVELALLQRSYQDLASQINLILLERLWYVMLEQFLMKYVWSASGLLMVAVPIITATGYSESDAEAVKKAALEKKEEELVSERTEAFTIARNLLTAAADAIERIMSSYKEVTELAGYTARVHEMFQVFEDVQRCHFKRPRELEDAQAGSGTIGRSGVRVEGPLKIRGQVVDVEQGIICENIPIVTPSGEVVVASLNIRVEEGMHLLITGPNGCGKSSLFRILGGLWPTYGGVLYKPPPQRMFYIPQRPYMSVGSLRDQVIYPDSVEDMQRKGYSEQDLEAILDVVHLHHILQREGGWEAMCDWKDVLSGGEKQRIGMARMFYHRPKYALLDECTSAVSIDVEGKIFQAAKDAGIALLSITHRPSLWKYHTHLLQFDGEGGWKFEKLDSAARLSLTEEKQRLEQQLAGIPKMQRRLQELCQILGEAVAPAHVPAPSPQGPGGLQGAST

SMILES	Correlation
COc1ccc2[nH]c3c(C)c4ccncc4c(C)c3c2c1 [NSC 69187]	−0.5711
Cc1c2ccncc2c(C)c2c1[nH]c1ccccc12 [NSC 71795]	−0.4642
Nc1nc(=S)c2ncn(C3CC(O)C(CO)O3)c2[nH]1 (stereo not drawn) [NSC 71851]	−0.4425
Cc1c2ccncc2c(C)c2c1[nH]c1ccc(OCCN(C)C)cc12 [NSC 338258]	−0.5453
COc1ccc2c(c1)-c1nn(CCCN(C)C)c3ccc([N+](=O)[O-])c(c13)N2 [NSC 627168]	−0.4599
OCCOc1ccc(-c2cc(-c3ccccn3)nc(-c3ccccn3)c2)cc1 [NSC 640499]	−0.4694
CCN(CC)CCn1ccc(=O)c2cc3c(=O)ccn(CCN(CC)CC)c3c(C)c21 [NSC 645161]	−0.5134
CCN(CC)CCNc1ccc2ncn3c4ccc(OC)cc4c(=O)c1c23 [NSC 645812]	−0.4825
COc1ccc2c(c1)c(=O)c1c(NCCCN(C)C)ccc3ncn2c31.Cl [NSC 645813]	−0.4824
CCN(CC)CCCNc1ccc2nnn3c4ccc(O)cc4c(=O)c1c23 [NSC 645814]	−0.4346
CN(C)CCCNc1ccc2nnn3c4ccc(O)cc4c(=O)c1c23 [NSC 645830]	−0.4258
CCN(CC)CCCNc1ncc(C)c2c1c1ccc3c(O)cccc3c1n2C [NSC 653438]	−0.4252
